Results on 14 molecules are retold here after US6300499A, “α1-adrenergic receptor antagonists” (Societe de Conseils de Recherches et d'Applications …, priority 1998, dated 2001).

The target in the assay is α1-adrenergic receptor. Nature of the assay: Test of the bond to the α1-adrenergic receptor (inhibition of [3H]prazosin bond to rat cerebral cortex). Format: binding, rat (male Sprague Dawley). The following applies: [3H]prazosin 0.2 nM, rat cerebral cortex membranes, 30 min, 25° C., pH 7.7. As to the method: The cerebral cortices of male Sprague Dawley rats are homogenized at 4° C. in Tris-HCl 50 mM pH=7.7 and centrifuged at 50,000 g for 30 minutes at 4° C. The pellets are again suspended in the same buffer and centrifuged again at 50,000 g for 30 minutes at 4° C.
The filters are rinsed three times with the same buffer at 0-4° C. and their radioactivity is tested by liquid scintillation spectrometry.
The specific bonds are obtained by subtracting the non-specific bonds (determined in the presence of 10 μM of phentolamine (Sigma Chemical Co. St. Louis Mo.)) from the total bonds. The data relative to the bonds is analyzed by computer assisted iterative non-linear regression analysis, using the Ligand program (Munson, P. J., Rodbard, D. Anal. Biochem. 107:220 (1980)).

The Ki is the equilibrium dissociation constant of an inhibitor or competing ligand from its target. High values mean a looser hold on the target, low ones a stronger hold on the target.

Molecule `Cc1ccc(C)c(N2CCN(CCCNC(=O)C(C)(O)c3cccc(Cl)c3)CC2)c1` (racemic) [Compound 31, (±)-3-chloro-N-[3-{4-(2,5-dimethylphenyl)-1-piperazinyl}-propyl]-α-hydroxy-α-methyl-benzeneacetamide] registered an inhibition constant (Ki) of 43 nM.
With `CCC(CC)(C(=O)NCCCN1CCN(c2cc(C)ccc2C)CC1)c1ccccc1` [Compound 26, N-[3-{4-(2,5dimethylphenyl)-1-piperazinyl}-propyl]-2-ethyl-2-phenyl-butyramide] the figure was 74 nM; with `Cc1cccc(N2CCN(CCCNC(=O)C(O)(c3ccccc3)c3ccccc3)CC2)c1C` [Compound 4, N-[3-{4-(2,3-dimethylphenyl)-1-piperazinyl}-propyl]-α-hydroxy-α-phenyl-benzeneacetamide], 66 nM.
The molecule `Cc1ccc(C(C)(O)C(=O)NCCCN2CCN(c3cc(C)ccc3C)CC2)cc1` (racemic) [Compound 41, (±)-N-[3-{4-(2,5-dimethylphenyl)-1-piperazinyl}-propyl]-α-hydroxy-α-methyl-4-methyl-benzeneacetamide] registered a Ki of 27 nM. Against the preceding molecule, the Ki is about 2.4-fold lower.
With `Cc1ccc(N2CCN(CCCNC(=O)C(O)(c3ccccc3)c3ccccc3)CC2)cc1` [Compound 3, α-hydroxy-N-[3-{4-(4-methylphenyl)-1-piperazinyl}-propyl]-α-phenyl-benzeneacetamide] the figure was 60 nM; with `CCSC(C(=O)NCCCN1CCN(c2cc(C)ccc2C)CC1)(c1ccccc1)c1ccccc1` [Compound 24, N-[3-{4-(2,5dimethylphenyl)-1-piperazinyl}-propyl]-α-ethylthio-α-phenyl-benzeneacetamide], 69 nM; with `Cc1ccc(C)c(N2CCN(CCCNC(=O)C(C)(O)c3cccc(-c4ccccc4)c3)CC2)c1` (racemic) [Compound 44, (±)-N-[3-{4-(2,5-dimethylphenyl)-1-piperazinyl}-propyl]-α-hydroxy-α-methyl-1,1'-biphenyl-3-acetamide], 73 nM.
Molecule `Cc1ccc(C)c(N2CCN(CCCNC(=O)C(C)(c3ccccc3)c3ccccc3)CC2)c1` [Compound 23, N-[3-{4-(2,5-dimethylphenyl)-1-piperazinyl}-propyl]-α-methyl-α-phenyl-benzeneacetamide] returned a Ki of 98 nM.
With `COC(C)(C(=O)NCCCN1CCN(c2cc(C)ccc2C)CC1)c1ccccc1` (racemic) [Compound 51, (±)-N-[3-{4-(2,5-dimethylphenyl)-1-piperazinyl}-propyl]-α-methoxy-α-methyl-benzeneacetamide] the figure was 110 nM; with `CCCc1ccccc1N1CCN(CCCNC(=O)C(O)(c2ccccc2)c2ccccc2)CC1` (racemic) [Compound 56, (±)-N-[3-{4-(2-(propyl)-phenyl)-1-piperazinyl}-propyl]-α-hydroxy-α-phenyl-benzeneacetamide], 25 nM.
`O=C(NCCCN1CCN(c2ccccc2C(O)C2CC2)CC1)C(c1ccccc1)c1ccccc1` (racemic) [Compound 55, (±)-N-[3-{4-(2-(cyclopropylhydroxymethyl)-phenyl)-1-piperazinyl}-propyl]-α-phenyl-benzeneacetamide] registered a Ki of 300 nM.
In the case of `Cc1ccc(C)c(N2CCN(CCCN(C)C(=O)C(c3ccccc3)c3ccccc3)CC2)c1` [Compound 35, N-[3-{4-(2,5-dimethylphenyl)-1piperazinyl}-propyl]-N-methyl-α-phenyl-benzeneacetamide], the Ki amounted to 90 nM.
In turn, `Cc1ccc(C)c(N2CCN(CCCNC(=O)C(N)c3ccccc3)CC2)c1` (racemic) [Compound 32, (±)-a-amino-N-[3-{4-(2,5-dimethylphenyl)-1-piperazinyl}-propyl]-benzeneacetamide] came in with a Ki of 51 nM.
As to `Cc1ccc(C)c(N2CCN(CCCNC(=O)C(c3ccc(Cl)cc3)c3ccc(Cl)cc3)CC2)c1` [Compound 21, 4-chloro-a-(4-chlorophenyl)-N-[3-{4-(2,5-dimethylphenyl)-1-piperazinyl}-propyl]-benzeneacetamide], the Ki worked out at 64 nM.
